The values that follow come from US20110224231A1, “Novel Lactams as Beta Secretase Inhibitors” (Pfizer Inc., priority 2008, published 2011).

The structures appear in SMILES notation.

Usually IC50 stands for the concentration that inhibits the measured activity by half. High values mean lower potency, low ones higher potency.

The experiment addresses T1, soluble human BACE (Homo sapiens, UniProt P56817).
T1 construct: cells secreting human recombinant soluble BACE; made in house; conditioned medium
In words: BACE activity Cell Free Assay (ELISA of cleaved synthetic APP substrate). The experiment is classed as biochemical. How it is done: A synthetic APP substrate that can be cleaved by beta˜secretase and having N-terminal biotin is used to assay beta-secretase activity in the presence or absence of the inhibitory compounds. […] The substrate and test compounds are added to 384 well polypropylene plates. The reaction is initiated by the addition of soluble BACE enzyme to a final volume of 12.5 μL per well. The final assay conditions are: 0.001˜300 μM compound inhibitor, 0.05M sodium acetate (pH 4.5), 3 μM substrate, soluble human BACE, and 2% DMSO. Concentrated conditioned media from cells secreting human recombinant soluble BACE was titrated to provide a source of BACE enzyme. The cell media can be used as either a crude BACE prep or BACE can be purified using any number of techniques, including immobilized BACE inhibitor purification columns. The assay mixture is incubated for 1 hour at 37° C., and the reaction is quenched by the addition of an equal volume of 0.1M Tris, pH 8. Half of the quenched mix is incubated on clear streptavidin coated 384 well polystyrene plates for 1 hour. An ELISA is then performed using an in˜house antibody that specifically recognizes the new C˜terminus created after cleavage by BACE. […] (These polyclonal antibodies were raised in rabbits by immunizing with antigen comprised of six amino acid residues present at the carboxy terminus of the wild-type soluble APPbeta sequence (NH2-ISEVKM-COOH) or seven amino acid residues present at the carboxy terminus of the Swedish mutation at the beta cleavage site (NH2-EISEVNL˜COOH) conjugated to keyhole limpet hemacyanin by methods known to those skilled in the art.) A secondary anti˜species Horseradish Peroxidase (HRP) conjugated antibody is then utilized. The readout, following assay development with TMB substrate and quenching with 0.09M sulfuric acid, is absorbance at 450 nm.
On the technique in general: In an ELISA, binding on a coated surface is turned into a signal by an enzyme label.

T1 sequence (P56817 46-457 limits assumed): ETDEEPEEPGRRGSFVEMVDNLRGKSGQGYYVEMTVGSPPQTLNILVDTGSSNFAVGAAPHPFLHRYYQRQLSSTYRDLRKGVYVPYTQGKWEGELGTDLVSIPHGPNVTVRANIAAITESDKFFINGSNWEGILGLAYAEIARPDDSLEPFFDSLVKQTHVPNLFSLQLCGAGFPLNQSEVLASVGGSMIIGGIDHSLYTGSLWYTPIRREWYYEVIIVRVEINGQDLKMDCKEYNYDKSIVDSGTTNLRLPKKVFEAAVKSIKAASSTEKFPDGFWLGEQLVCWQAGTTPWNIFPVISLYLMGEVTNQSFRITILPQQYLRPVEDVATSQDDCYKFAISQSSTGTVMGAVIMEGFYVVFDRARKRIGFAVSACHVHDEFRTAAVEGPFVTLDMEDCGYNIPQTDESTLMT

The compound `CCOc1cccc(CN2CCC3(C=CC(=O)N3c3cccc(F)c3)CC2C)c1` (racemic) [Example 1, Racemic (5R,7S),(5S,7R)-8-(3-ethoxybenzyl)-1-(3-fluorophenyl)-7-methyl-1,8-diazaspiro[4.5]dec-3-en-2-one] had a 50% inhibitory concentration (IC50) of 10 to 100 µM.

Consider `Cc1ccc(Oc2cccc(CN3CCC4(C=CC(=O)N4c4cccc(F)c4)CC3C)c2)cc1` (racemic) [Example 2, Racemic (5R,7S),(5S,7R)-1-(3-fluorophenyl)-7-methyl-8-[3-(4-methylphenoxy)benzyl]-1,8-diazaspiro[4.5]dec-3-en-2-one], for which the IC50 lay within 1 to 10 µM.

Regarding `COc1ccc(Oc2cccc(CN3CCC4(C=CC(=O)N4c4cccc(F)c4)CC3C)c2)cc1` (racemic) [Example 3, Racemic (5R,7S),(5S,7R)-1-(3-fluorophenyl)-8-[3-(4-methoxyphenoxy)benzyl]-7-methyl-1,8-diazaspiro[4.5]dec-3-en-2-one], the half-maximal inhibitory concentration (IC50) is 10 to 100 µM.

Compound `CC1CC2(C=CC(=O)N2c2cccc(F)c2)CCN1Cc1cccc(S(=O)(=O)N2CCCC2)c1` (racemic) [Example 4, Racemic (5R,7S),(5S,7R)-1-(3-fluorophenyl)-7-methyl-8-[3-(pyrrolidin-1-ylsulfonyl)benzyl]-1,8-diazaspiro[4.5]dec-3-en-2-one] yielded an IC50 of 10 to 100 µM.

`CC1CC2(C=CC(=O)N2c2cccc(F)c2)CCN1Cc1cccc(COc2cc(F)cc(F)c2)c1` (racemic) [Example 5, Racemic (5R,7S),(5S,7R)-8-{3-[(3,5-difluorophenoxy)methyl]benzyl}-1-(3-fluorophenyl)-7-methyl-1,8-diazaspiro[4.5]dec-3-en-2-one]: the IC50 is 10 to 100 µM.

As to `CC1CC2(C=CC(=O)N2c2cccc(F)c2)CCN1Cc1cccc(O)n1` (racemic) [Example 6, Racemic (5R,7S),(5S,7R)-1-(3-fluorophenyl)-8-[(6-hydroxypyridin-2-yl)methyl]-7-methyl-1,8-diazaspiro[4.5]dec-3-en-2-one], the IC50 lay within 100 to 300 µM.

In turn, `CC1CC2(C=CC(=O)N2c2cccc(F)c2)CCN1Cc1cccc(C#N)c1` (racemic) [Example 7, Racemic 3-{[(5R,7S),(5S,7R)-1-(3-fluorophenyl)-7-methyl-2-oxo-1,8-diazaspiro[4.5]dec-3-en-8-yl]methyl}benzonitrile] displayed a 50% inhibitory concentration (IC50) of 10 to 100 µM.

On to `COc1cccc(CN2CCC3(C=CC(=O)N3c3cccc(F)c3)CC2C)c1` (racemic) [Example 8, Racemic (5R,7S),(5S,7R)-1-(3-fluorophenyl)-8-(3-methoxybenzyl)-7-methyl-1,8-diazaspiro[4.5]dec-3-en-2-one], for which the half-inhibitory concentration (IC50) was 100 to 300 µM.

Compound `CC1CC2(C=CC(=O)N2c2cccc(F)c2)CCN1Cc1ccc(O)cc1O` (racemic) [Example 9, Racemic (5R,7S),(5S,7R)-8-(2,4-dihydroxybenzyl)-1-(3-fluorophenyl)-7-methyl-1,8-diazaspiro[4.5]dec-3-en-2-one] showed a half-maximal inhibitory concentration (IC50) of 100 to 300 µM.

`CCCn1nccc1CN1CCC2(C=CC(=O)N2c2cccc(F)c2)CC1C` (racemic) [Example 10, Racemic (5R,7S),(5S,7R)-1-(3-fluorophenyl)-7-methyl-8-[(1-propyl-1H-pyrazol-5-yl)methyl]-1,8-diazaspiro[4.5]dec-3-en-2-one] returned an IC50 of 10 to 100 µM.

`CC1CC2(C=CC(=O)N2c2cccc(F)c2)CCN1Cc1ccc2[nH]ccc2c1` (racemic) [Example 11, Racemic (5R,7S),(5S,7R)-1-(3-fluorophenyl)-8-(1H-indol-5-ylmethyl)-7-methyl-1,8-diazaspiro[4.5]dec-3-en-2-one] registered an IC50 of 10 to 100 µM.

Take `COc1cc(CN2CCC3(C=CC(=O)N3c3cccc(F)c3)CC2C)ccc1O` (racemic) [Example 12, Racemic (5R,7S),(5S,7R)-1-(3-fluorophenyl)-8-(4-hydroxy-3-methoxybenzyl)-7-methyl-1,8-diazaspiro[4.5]dec-3-en-2-one]: the IC50 was in the range of 1 to 10 µM.

Take `COc1cc(CN2CCC3(C=CC(=O)N3c3cccc(F)c3)CC2C)ccc1F` (racemic) [Example 13, Racemic (5R,7S),(5S,7R)-8-(4-fluoro-3-methoxybenzyl)-1-(3-fluorophenyl)-7-methyl-1,8-diazaspiro[4.5]dec-3-en-2-one]: the IC50 is 10 to 100 µM.

`COc1ccc(F)c(CN2CCC3(C=CC(=O)N3c3cccc(F)c3)CC2C)c1` (racemic) [Example 14, Racemic (5R,7S),(5S,7R)-8-(2-fluoro-5-methoxybenzyl)-1-(3-fluorophenyl)-7-methyl-1,8-diazaspiro[4.5]dec-3-en-2-one] yielded an IC50 of 100 to 300 µM.

For the compound `CC1CC2(C=CC(=O)N2c2cccc(F)c2)CCN1Cc1ccc(O)c(Cl)c1` (racemic) [Example 15, Racemic (5R,7S),(5S,7R)-8-(3-chloro-4-hydroxybenzyl)-1-(3-fluorophenyl)-7-methyl-1,8-diazaspiro[4.5]dec-3-en-2-one], the concentration for half-maximal inhibition (IC50) was 1 to 10 µM.

`CC(C)Oc1cccc(CN2CCC3(C=CC(=O)N3c3cccc(F)c3)CC2C)c1` (racemic) [Example 16, Racemic (5R,7S),(5S,7R)-1(3-fluorophenyl)-8-(3-isopropoxybenzyl)-7-methyl-1,8-diazaspiro[4.5]dec-3-en-2-one] came in with a concentration for half-maximal inhibition (IC50) of 1 to 10 µM.

In turn, `CCCOc1cccc(CN2CCC3(C=CC(=O)N3c3cccc(F)c3)CC2C)c1` (racemic) [Example 17, Racemic (5R,7S),(5S,7R)-1-(3-fluorophenyl)-7-methyl-8-(3-propoxybenzyl)-1,8-diazaspiro[4.5]dec-3-en-2-one] returned an IC50 of 10 to 100 µM.

Compound `CC(C)COc1cccc(CN2CCC3(C=CC(=O)N3c3cccc(F)c3)CC2C)c1` (racemic) [Example 18, Racemic (5R,7S),(5S,7R)-1-(3-fluorophenyl)-8-(3-isobutoxybenzyl)-7-rnethyl-1,8-diazaspiro[4.5]dec-3-en-2-one] yielded a half-maximal inhibitory concentration (IC50) of 10 to 100 µM.

The compound `CC1CC2(C=CC(=O)N2c2cccc(F)c2)CCN1Cc1cccc(-c2ccccn2)c1` (racemic) [Example 19, Racemic (5R,7S),(5S,7R)-1-(3-fluorophenyl)-7-methyl-8-(3-pyridin-2-ylbenzyl)-1,8-diazaspiro[4.5]dec-3-en-2-one] had a half-maximal inhibitory concentration (IC50) of 10 to 100 µM.

Regarding `CC1CC2(C=CC(=O)N2c2cccc(F)c2)CCN1Cc1cccc(OC2CCCC2)c1` (racemic) [Example 20, Racemic (5R,7S),(5S,7R)-8-[3-(cyclopentyloxy)benzyl]-1-(3-fluorophenyl)-7-methyl-1,8-diazaspiro[4.5]dec-3-en-2-one], the IC50 was in the range of 10 to 100 µM.

As for `Cc1ccncc1-c1cccc(CN2CCC3(C=CC(=O)N3c3cccc(F)c3)CC2C)c1` (racemic) [Example 21, Racemic (5R,7S),(5S,7R)-1-(3-fluorophenyl)-7-methyl-8-[3-(4-methylpyridin-3-yl)benzyl]-1,8-diazaspiro[4.5]dec-3-en-2-one], the half-inhibitory concentration (IC50) was 1 to 10 µM.

For `CC1CC2(C=CC(=O)N2c2cccc(F)c2)CCN1Cc1cccc(Oc2ccccc2)c1` (racemic) [Example 22, Racemic (5R,7S),(5S,7R)-1-(3-fluorophenyl)-7-methyl-8-(3-phenoxybenzyl)-1,8-diazaspiro[4.5]dec-3-en-2-one], the IC50 is 10 to 100 µM.

The compound `CC1CC2(C=CC(=O)N2c2cccc(F)c2)CCN1Cc1cc(Br)ccc1F` (racemic) [Example 23, Racemic (5R,7S),(5S,7R)-8-(5-bromo-2-fluorobenzyl)-1-(3-fluorophenyl)-7-methyl-1,8-diazaspiro[4.5]dec-3-en-2-one] had an IC50 of 10 to 100 µM.

Consider `CC1CC2(C=CC(=O)N2c2cccc(F)c2)CCN1Cc1ccc(F)c(Br)c1` (racemic) [Example 24, Racemic (5R,7S),(5S,7R)-8-(3-bromo-4-fluorobenzyl)-1-(3-fluorophenyl)-7-methyl-1,8-diazaspiro[4.5]dec-3-en-2-one], for which the IC50 is 100 to 300 µM.

For the compound `CC1CC2(C=CC(=O)N2c2cccc(F)c2)CCN1Cc1cccc(-c2cncc(C#N)c2)c1` (racemic) [Example 25, Racemic 5-(3-{[(5R,7S),(5S,7R)-1-(3-fluorophenyl)-7-methyl-2-oxo-1,8-diazaspiro[4.5]dec-3-en-8-yl]methyl}phenyl)nicotinonitrile], the IC50 is 10 to 100 µM.

Consider `CC1CC2(C=CC(=O)N2c2cccc(F)c2)CCN1Cc1nc(-c2ccc(C#N)cc2)cs1` (racemic) [Example 26, Racemic 4-(2-{[(5R,7S),(5S,7R)-1-(3-fluorophenyl)-7-methyl-2-oxo-1,8-diazaspiro[4.5]dec-3-en-8-yl]methyl}-1,3-thiazol-4-yl)benzonitrile], for which the IC50 fell in the range of 10 to 100 µM.

For `CC1CC2(C=CC(=O)N2c2cccc(F)c2)CCN1Cc1nc(-c2cccc(C#N)c2)cs1` (racemic) [Example 27, Racemic 3-(2-{[(5R,7S),(5S,7R)-1-(3-fluorophenyl)-7-methyl-2-oxo-1,8-diazaspiro[4.5]dec-3-en-8-yl]methyl}-1,3-thiazol-4-yl)benzonitrite], the IC50 lay in the range of 10 to 100 µM.
